# Measurements: patent US20240383882A1 (Ecstasy LLC, priority 2020, published 2024)
# Counter-ions that a name gives are not always drawn. Like-named read-outs stand apart in the source and are kept apart here.
# Tested on: male C57BL/6 mice
# Assay: 55° C. warm-water tail-flick test (antinociception)
# Type: in vivo
# Settings: Mus musculus
# Procedure: Antinociception was assessed using the 55° C. warm-water tail-flick test. The latency to the first sign of a rapid tail flick was taken as the behavioral endpoint. Each mouse was first tested for baseline latency by immersing its tail in the water and recording the time to response. Mice not responding within 2 secs were excluded from further testing. Responsive mice were then s.c. administered the test compound and tested for antinociception at 30 min, 60 min, 90 min, and 120 min time points afterward. Antinociception was calculated using the following formula: percentage of antinociception=100×(test latency−control latency)/(20−control latency).
# The following new compounds were also made and tested to determine the half maximal possible effective dose, or ED50 (mg/kg), in mice, using one of: the warm water tail-flick test as in Table II, spared nerve injury, chronic constriction injury, or Complete Freund's adjuvant induced inflammatory pain. The symbols in the last column are: + indicates ED 50>50 mg/kg; ++ indicates ED 50 is less than or equal to 30 mg/kg.
# [1] = half maximal effective dose in mice, using one of: warm water tail-flick test, spared nerve injury, chronic constriction injury, or Complete Freund's adjuvant induced inflammatory pain (not stated which per compound), read-out: Biological Activity (ED50)
# [2] = sc, 0.5 h, compounds of Table I, s.c., 30 min, 55° C. water, configuration tested as in Table II, read-out: ED50 (mg/kg) at 30 min on C57BL/6 mice in Warm-water Tail-flick Test
SMILES,ED50 [1] [mg/kg],ED50 [2] [mg/kg]
"CC(C)(c1ccccn1)N1CC[C@](CCc2ccc(C#N)cc2)(c2ncc[nH]2)C1 [Compound 225, (S)-4-(2-(3-(1H-imidazol-2-yl)-1-(2-(pyridin-2-yl)propan-2-yl)pyrrolidin-3-yl)ethyl) benzonitrile]",> 50,
"CC(C)(c1ccccn1)N1CC[C@@](/C=C/c2ccc(C#N)cc2)(c2nn[nH]n2)C1 [Compound 185, (S,E)-4-(2-(1-(2-(pyridin-2-yl)propan-2-yl)-3-(2H-tetrazol-5-yl)pyrrolidin-3-yl)vinyl) benzonitrile]",> 50,
"CC(C)(c1ccccn1)N1CC[C@@](CCc2ccc(C#N)cc2)(C(=O)NC2(C(F)(F)F)COC2)C1 [Compound 206, (R)-3-(4-cyanophenethyl)-1-(2-(pyridin-2-yl)propan-2-yl)-N-(3-(trifluoromethyl)oxetan-3-yl)pyrrolidine-3-carboxamide]",≤ 30,
"CCOC(C(F)(F)F)[C@]1(CCc2ccc(C#N)s2)CCN(C(C)(C)c2ccccn2)C1 (single isomer, unassigned) [Compound 156, 5-(2-((R)-3-((R or S)-1-ethoxy-2,2,2-trifluoroethyl)-1-(2-(pyridin-2-yl)propan-2-yl)pyrrolidin-3-yl)ethyl)thiophene-2-carbonitrile]",≤ 30,
"CC(C)C(O)[C@]1(CCc2ccc(C#N)cc2)CCN(C(C)(C)c2ccccn2)C1 (single isomer, unassigned) [Compound 61]",> 50,
"CC(C)(c1ccccn1)N1CC[C@@](CCc2ccc(C#N)c(F)c2)(C(O)C(F)(F)F)C1 (single isomer, unassigned) [Compound 103, 2-fluoro-4-(2-((R)-1-(2-(pyridin-2-yl)propan-2-yl)-3-((R or S)-2,2,2-trifluoro-1-hydroxyethyl)pyrrolidin-3-yl)ethyl) benzonitrile]",> 50,
"CC1(C)COC1[C@]1(CCc2ccc(C#N)cc2)CCN(Cc2ccc(Cl)cc2)C1 (single isomer, unassigned) [Compound 195, 4-(2-((R)-1-(4-chlorobenzyl)-3-((R or S)-3,3-dimethyloxetan-2-yl)pyrrolidin-3-yl)ethyl) benzonitrile]",≤ 30,
"Cc1ccc(C(C)(C)N2CCC(CCc3ccc(F)s3)(CNC(=O)NC(C)C)C2)cn1 (single isomer, unassigned) [Compound 42]",,≤ 30
"CC(C)(c1ccccn1)N1CC[C@](CO)(CCc2ccc(F)cc2)C1 [Compound 215, (R)-(3-(4-fluorophenethyl)-1-(2-(pyridin-2-yl)propan-2-yl)pyrrolidin-3-yl)methanol]",> 50,
CCOC[C@@]1(CCc2ccc(S(C)(=O)=O)cc2)CCN(C(C)(C)c2ccc(Cl)cc2)C1 [Compound 51],≤ 30,
"CC(C)(c1ccccn1)N1CC[C@](COCc2ccccc2)(C2CCCO2)C1 (single isomer, unassigned) [Compound 42]",> 50,
"CC(C)(c1ccccn1)N1CC[C@](CO)(CCc2ccc(C#N)c(F)c2)C1 [Compound 110, (R)-2-fluoro-4-(2-(3-(hydroxymethyl)-1-(2-(pyridin-2-yl)propan-2-yl)pyrrolidin-3-yl)ethyl) benzonitrile]",≤ 30,
"CC(C)(c1ccccn1)N1CC[C@@](CCc2ccc(C#N)cc2)(C(=O)Nc2ccc(F)cn2)C1 [Compound 207, (R)-3-(4-cyanophenethyl)-N-(5-fluoropyridin-2-yl)-1-(2-(pyridin-2-yl)propan-2-yl)pyrrolidine-3-carboxamide]",≤ 30,
"Cc1ccc(C(C)(C)N2CCC(CCc3ccc(F)s3)(CNS(=O)(=O)N(C)C)C2)cn1 (single isomer, unassigned) [Compound 121]",,≤ 30
"CC(C)(c1ccc(C(F)(F)F)nc1)N1CC[C@@](CCc2ccc(C#N)cc2)(COCC(F)(F)F)C1 [Compound 28, (R)-4-(2-(3-((2,2,2-trifluoroethoxy)methyl)-1-(2-(6-(trifluoromethyl)pyridin-3-yl)propan-2-yl)pyrrolidin-3-yl)ethyl) benzonitrile]",> 50,
"CC1(C)COC1[C@]1(CCc2ccc(C#N)cc2)CCN(Cc2ccccn2)C1 (single isomer, unassigned) [Compound 192, 4-(2-((R)-3-((R or S)-3,3-dimethyloxetan-2-yl)-1-(pyridin-2-ylmethyl)pyrrolidin-3-yl)ethyl) benzonitrile]",≤ 30,
"CC(C)(c1ccc(S(C)(=O)=O)cc1)N1CC[C@](CO)(CCc2ccc(F)cc2)C1 [Compound 36, (R)-(3-(4-fluorophenethyl)-1-(2-(4-(methylsulfonyl)phenyl)propan-2-yl)pyrrolidin-3-yl)methanol]",> 50,
"CCOC(C(F)(F)F)[C@]1(CCc2ccc(C#N)cc2)CCN(C(C)(C)c2ccccn2)C1 (single isomer, unassigned) [Compound 52]",> 50,

SMILES,ED50 [1] [mg/kg],ED50 [2] [mg/kg]
"CCOC(c1ccccn1)C1(CCc2cccs2)CCN(C(C)(C)c2ccc(C)nc2)C1 (single isomer, unassigned) [Compound 86, 5-(2-((S or R)-3-((R& S)-ethoxy(pyridin-2-yl)methyl)-3-(2-(thiophen-2-yl)ethyl)pyrrolidin-1-yl)propan-2-yl)-2-methylpyridine citrate]",,≤ 30
"CC(C)(O)[C@@]1(CCc2ccc(C#N)cc2)CCN(C(c2ccc(F)cc2)c2cccnc2)C1 (single isomer, unassigned) [Compound 71]",> 50,
CCOCC1(CCn2c(=O)n(CC(C)C)c3cc(F)c(F)cc32)CCN(C(C)(C)c2ccc(C)nc2)C1 (stereo not drawn) [Compound 100],,≤ 30
"CC(C)(c1ccccn1)N1CC[C@](CO)(CCc2cnc(C(F)(F)F)nc2)C1 [Compound 190, (R)-(1-(2-(pyridin-2-yl)propan-2-yl)-3-(2-(2-(trifluoromethyl)pyrimidin-5-yl)ethyl)pyrrolidin-3-yl)methanol]",> 50,
"Cc1ccc(CN2CC[C@@](CCc3ccc(C#N)cc3)(C3OCC3(C)C)C2)cn1 (single isomer, unassigned) [Compound 194, 4-(2-((R)-3-((R or S)-3,3-dimethyloxetan-2-yl)-1-((6-methylpyridin-3-yl)methyl)pyrrolidin-3-yl)ethyl) benzonitrile]",≤ 30,
"CC(O)[C@@]1(CCc2ccc(C#N)cc2)CCN(C(c2ccc(F)cc2)c2cccnc2)C1 (single isomer, unassigned) [Compound 58]",> 50,
"CCOCC1(CCn2c(=O)[nH]c3cc(F)c(F)cc32)CCN(C(C)(C)c2ccc(C)nc2)C1 (single isomer, unassigned) [Compound 99]",,≤ 30
"CCOC(c1ccccc1)[C@]1(CCc2ccc(C#N)cc2)CCN(C(C)(C)c2ccccc2)C1 (single isomer, unassigned) [Compound 31, 4-(2-((R)-3-((R or S)-ethoxy(phenyl)methyl)-1-(2-phenylpropan-2-yl)pyrrolidin-3-yl)ethyl)benzonitrile]",> 50,
"Cc1ccc(C(C)(C)N2CC[C@@](CCc3ccc(C#N)cc3)(COCc3ccccc3)C2)cn1 [Compound 17, (R)-4-(2-(3-((benzyloxy)methyl)-1-(2-(6-methylpyridin-3-yl)propan-2-yl)pyrrolidin-3-yl)ethyl) benzonitrile]",≤ 30,
"CC(O)[C@]1(CCc2ccc(F)cc2)CCN(C(C)(C)c2ccccn2)C1 (single isomer, unassigned) [Compound 216, (R or S)-1-((R)-3-(4-fluorophenethyl)-1-(2-(pyridin-2-yl)propan-2-yl)pyrrolidin-3-yl)ethan-1-ol]",> 50,
"CC(C)(c1ccccn1)N1CC[C@@](CCc2ccc(C#N)c(F)c2)(C(=O)C(F)(F)F)C1 [Compound 105, (R)-2-fluoro-4-(2-(1-(2-(pyridin-2-yl)propan-2-yl)-3-(2,2,2-trifluoroacetyl)pyrrolidin-3-yl)ethyl) benzonitrile]",> 50,
"CC(C)(c1ccccn1)N1CC[C@](CCc2ccc(C#N)cc2)([C@@H]2CCCO2)C1 [Compound 41, 4-(2-((S)-1-(2-(pyridin-2-yl)propan-2-yl)-3-((S)-tetrahydrofuran-2-yl)pyrrolidin-3-yl)ethyl) benzonitrile]",> 50,≤ 30
"CCOC(C(F)(F)F)(C(F)(F)F)[C@]1(CCc2ccc(F)cc2)CCN(Cc2cccnc2)C1 [Compound 14, (R)-3-((3-(2-ethoxy-1,1,1,3,3,3-hexafluoropropan-2-yl)-3-(4-fluorophenethyl)pyrrolidin-1-yl)methyl)pyridine]",> 50,
"Cc1ccc(S(=O)(=O)NCC2(CCc3cc(C)c(C)s3)CCN(C(C)(C)c3ccc(C)nc3)C2)cc1 (single isomer, unassigned) [Compound 126]",,≤ 30
"CCOC(C(F)(F)F)(C(F)(F)F)[C@]1(CCc2ccc(C)cc2)CCN(C(C)(C)c2ccc(C)nc2)C1 [Compound 7, (R)-5-(2-(3-(2-ethoxy-1,1,1,3,3,3-hexafluoropropan-2-yl)-3-(4-methylphenethyl)pyrrolidin-1-yl)propan-2-yl)-2-methylpyridine]",> 50,
"CCOCC1(Cn2cnc3cnccc32)CCN(C(C)(C)c2ccc(C)nc2)C1 (single isomer, unassigned) [Compound 85, (R or S)-1-((3-(ethoxymethyl)-1-(2-(6-methylpyridin-3-yl)propan-2-yl)pyrrolidin-3-yl)methyl)-1H-imidazo[4,5-c]pyridine citrate]",,≤ 30
"CC(C)(c1ccccn1)N1CC[C@](CCc2ccc(C#N)cc2)(C(O)C(F)(F)F)C1 (single isomer, unassigned) [Compound 223]",> 50,
